Reference: US11007250B2, “Methods and kits for treating pain” (Duke University, priority 2017, dated 2021)

Experiments:
[1] = test system: afferent fibers in sciatic nerve of melanoma-bearing mice; assay: Spontaneous discharge recordings in mouse sciatic nerve in vivo; details: i.v. Nivolumab 10 mg/kg, MCI-4w, 3 h after injection
Description: Spontaneous discharge recordings in mouse sciatic nerve in vivo. Adult male mice (25-32 g) were anaesthetized with urethane (1.5 g/kg, i.p.) and monitored for loss of hind paw pinch reflex with additional injections of urethane (0.2 g/kg). The animals were artificially ventilated with oxygen on a respirator. The left thigh was shaved and an incision made parallel to the femur. The muscle was parted by blunt forceps dissection to expose the sciatic nerve proximal to the trifurcation. A cuff electrode (Microprobes) was placed loosely around the full circumference of the sciatic nerve. Skin flaps were raised to enclose a pool of mineral oil that covered the exposed regions of nerve. The spontaneous discharges in the sciatic nerve were recorded with a microelectrode AC amplifier (1800, A-M systems), filtered (low cut-off 100 Hz and hi cut-off 20 kHz) and digitized at 20 kHz (Digidata 1440A, Molecular Devices). Data were stored with a personal computer using pCLAMP 10 software and analyzed with Offline Sorter software (Plexon, Dallas, Tex.) and Origin pro 8.0 (Origin Lab). The spikes of sciatic nerve were characterized as previously reported (Xu, Z Z, et al. 2015).

[2] = test system: tibia bone of mice with LLC bone cancer; assay: X-ray bone destruction score in LLC bone cancer model; assay type: in vivo, mouse; details: Nivolumab 10 mg/kg IV; scores 8, 11 and 15 days after tumor inoculation
Procedure: FIG. 27. Intravenous injections of Nivolumab protect against bone destruction after tumor inoculation. […] (B) X-ray images showing tibia bones 11 days after tumor inoculation. Arrows show bone destruction in saline-treated animals. (C) Bone destruction scores 8, 11, and 15 days after tumor inoculation. The scores were assessed as follows: Score 0, normal bone with no signs of destruction; Scorel, small radiolucent lesions indicative of bone destruction (one to three lesions); Score 2, increased number of lesions (three to six lesions) and loss of medullary bone; Score 3, loss of medullary bone and erosion of cortical bone; Score 4, full-thickness unicortical bone loss; Score 5, full-thickness bicortical bone loss and displaced skeletal fracture. n=9-11 in each group, male, 8-10 weeks; Two-way ANOVA with Bonferroni's hoc-test; *P<0.05, compared with baseline; #P<0.05, compared with Saline group; Scores n were shown by the arrows in B.
Since cancers often become painful after metastasis to bone tissue, we examined the role of PD-1 in a bone cancer pain model following inoculation of Lewis lung cancer (LLC) cells into tibia bone cavity. […]

mice = assay: Tail-flick and hot-plate tests of morphine antinociception; assay type: in vivo, mouse
Procedure: Tail-flick test. All animals were habituated to testing environment for at least 2 days before baseline testing. Mice were gently held by a hand with a terry glove and with tails exposed. The distal 3 cm of the tail was immersed into the 50° C. hot water. The tail-flick latency was the time required for a mouse to flick or remove its tail out of the water. A maximum cut-off value of 15 seconds was set to avoid thermal injury. Tail-flick latency was determined both before and after drug injection. Data are expressed as the maximum possible effect (MPE) calculated as MPE (%)=100×[(postdrug response baseline response)/(cutoff response−baseline response)]. The MPE (%) data from each animal were converted to area under the curve (AUC).
Hot-plate test. All animals were habituated to testing environment for at least 2 days before baseline testing. […] A maximum cut-off value of 40 seconds was set to avoid tissue injury. Data are expressed as the maximum possible effect (MPE) calculated as MPE (%)=100×[(postdrug response−baseline response)/(cutoff response−baseline response)]. The MPE (%) data from each animal were converted to area under the curve (AUC).

[3] = test system: small-diameter neurons of whole-mount DRG; assay: Whole-cell patch clamp recordings in whole mount DRGs ex vivo; assay type: cell-based, mouse; details: WT whole mount DRG; sPD-1 30 ng/ml, Nivolumab 300 ng/ml
Procedure: Whole-cell patch clamp recordings in whole mount DRGs of mice ex vivo. L4-L5 DRGs were carefully removed 4 days after sham surgery or CCI surgery and placed in cold oxygenated ACSF. The connective tissue was gently removed under a microscope and the ganglia were digested with a mixture of 0.4 mg/mL trypsin (Sigma) and 1.0 mg/ml type-A collagenase (Sigma) for 30 min at 37° C. The intact ganglia were then incubated in ACSF oxygenated with 95% O2 and 5% CO2 at 28° C. for at least 1 h before transferring them to the recording chamber. DRG neurons were visualized with a 40× water-immersion objective using a BX51WI microscope (Olympus). Whole-cell current and voltage recordings were acquired with an Axon700B amplifier. Patch pipettes (4-7 MO) were pulled from borosilicate glass capillaries on P-97 puller. The recording chamber (300 μl) was continuously superfused (3-4 ml/min). Series resistance was compensated for (>80%), and leak subtraction was performed. The pipette solution contained (in mM): 140 KCl, 2 MgCl2, 10 Hepes, 2 Mg-ATP, pH 7.4. Osmolarity was adjusted to 290-300 mOsm. Data was acquired with a Digidata 1322A acquisition system (molecular devices) using pCLAMP 9.0 software. Signals were low-pass filtered at 5 kHz, sampled at 10 kHz and analyzed offline.

[4] = test system: lamina 110 neurons in spinal cord slices; assay: Patch clamp recordings of sEPSCs in spinal cord slices; assay type: cell-based, mouse; details: Nivolumab 300 ng/ml
[5] = PD-L1 30 ng/ml, sPD-1 30 ng/ml perfusion, 3 h

## Nivolumab: FDA-approved fully humanized IgG4 monoclonal anti-PD-1 antibody, Bristol-Myers Squibb
[1]
  spontaneous discharges in nerve fibers: significantly increased spontaneous discharges
[2]
  tibia bone destruction during cancer progression (X-ray): protected
mice; Nivolumab 10 mg/kg i.v. 30 min before morphine 10 mg/kg s.c.
  analgesic effect of morphine after Nivolumab: reduced analgesic effect
mice; Nivolumab 10 mg/kg i.v. 30 min before s.c. saline
  pain sensitivity, given with saline: greater sensitivity to pain
[3]
  firing rate of action potentials: increased the firing rate
[4]; 3 h incubation
  effect on PD-L1's inhibition of sEPSC frequency: blocked
[4]; [5]
  amplitude of spontaneous EPSCs (sEPSCs): not amplitude
  frequency of spontaneous EPSCs (sEPSCs): increased sEPSC frequency
